Earlier results, collected in patent US5547668A, “Conjugates of folate anti-effector cell antibodies” (The Board of Trustees of The University of Illinois, priority 1995, dated 1996).

Tested on: FR

C#CCN(Cc1ccc2nc(N)[nH]c(=O)c2c1)c1ccc(C(=O)N[C@@H](CCC(=O)O)C(=O)O)cc1 [CB3717, N^10-propargyl-5,8-dideazafolic acid]
affinity for the FR: bind with high affinity

C#CCN(Cc1ccc2nc(C)[nH]c(=O)c2c1)c1ccc(C(=O)N[C@@H](CCC(=O)O)C(=O)O)cc1 [ICI-198,583, 2-deamino-2-methyl-N^10-propargyl-5,8-dideazafolic acid]
affinity for the FR: bind with high affinity

CN(Cc1cnc2nc(N)nc(N)c2n1)c1ccc(C(=O)N[C@@H](CCC(=O)O)C(=O)O)cc1 [MTX, methotrexate]
affinity for the FR: does not bind to MTX with high affinity
